This note sets out measurements from PMC9131456, “Structure-Based Discovery of Lipoteichoic Acid Synthase Inhibitors” (Journal of Chemical Information and Modeling, 2022).

One data set deals with T1, wild-type eLtaS (Staphylococcus aureus, UniProt Q2G093).
T1 construct: LtaS is a transmembrane protein with a large extracellular catalytic domain (denoted as eLtaS); His-tag; made in house; host or cells: E. coli (Rosetta; plasmid pProEX-eLtaS from strain ANG571)
Briefly: Isothermal titration calorimetry, wild-type eLtaS. Type of data set: binding, S. aureus. To be noted: ITC; for Kd: 25 °C, wild-type eLtaS titrated into 10 μM inhibitor. How it is done:
Each of the eLtaS proteins were purified from 6 L of E. coli cultures that were grown with aeration in LB medium supplemented with 200 μg/mL of carbenicillin and 34 μg/mL of chloramphenicol at 37 °C. When the cultures reached an OD600nm of about 0.6, protein expression was induced with 1 mM IPTG final concentration at 21 °C overnight. Later, the bacteria were harvested by centrifugation at 11,899g, and the bacterial pellets were resuspended with lysis buffer (50 mM Trizma-HCl, pH 7.5, 300 mM NaCl, 5% glycerol, 10 mM imidazole, 5 mM β-mercaptoethanol). The bacterial pellets were lyzed by three passages through a high-pressure emulsifier, and the lysates were centrifuged at 47,596g for 30 min at 4 °C. The resulting supernatants containing the His-tagged eLtaS proteins were filtered with a 0.22 μm filter before being loaded onto a 5 mL Ni-NTA column using an ÄKTApure protein purification system. The bound proteins were subsequently washed with lysis buffer, eluted using the elution buffer (50 mM Trizma-HCl, pH 7.5, 300 mM NaCl, 5% glycerol, and 300 mM imidazole), and dialyzed twice using the dialysis buffer [25 mM Trizma-HCl, pH 7.5, 100 mM NaCl, 10% glycerol, 1 mM ethylenediaminetetraacetic acid (EDTA)]. After dialysis, protein purity was confirmed to be >90% using SDS-PAGE. Proteins were then concentrated, snap-frozen in liquid N2, and stored at −80 °C prior to usage. All four eLtaS proteins were subjected to circular dichroism analysis, and their exact masses were determined using MS.
The thawed eLtaS proteins were dialyzed using D-Tube Dialyzer Mini (EMD Millipore) in 20 mM Trizma-HCl pH 7.5, 100 mM NaCl with Chelex 100 (Sigma-Aldrich) for 1.5 h twice on the same day prior to the ITC experiments. After dialysis, the eLtaS proteins were centrifuged at 20,000g at 10 °C for 10 min. The supernatants were transferred to new microcentrifuge tubes and diluted to 100 μM using the same buffer as above with an addition of 0.1% (v/v) DMSO. Meanwhile, the eLtaS inhibitors were diluted to 10 μM using the same buffer and maintaining 0.1% (v/v) DMSO. The eLtaS proteins were titrated into the main cell containing the inhibitors using a VP-ITC at 25 °C. The injection parameters were set as follows: a reference power of 15 μcal/s, an initial injection of 3 μL over a duration of 3.6 s, and then subsequent injections of 10 μL over a duration of 12 s. All injections were spaced with 240 s with a filter period of 2 s. Data were first analyzed in NITPIC[69] for baseline calculations and then fit for thermodynamic parameters using the OneSite model in Origin 7.0 software.
In general terms: ITC needs no label: the signal is the heat of the interaction.

In data set [1] the test system is LTA production in S. aureus (strain RN4220). Briefly: Western blot (immunoblotting) of LTA in S. aureus cell extracts. As to conditions: for LTA production: Western blot of S. aureus cell extracts, 10 μM in Figure S14, 100 μM for compound 8. Type of data set: cell-based. How it is done:
The procedures of LTA detection using Western Blot had previously been reported by Gründling et al.[52] To determine the effect of the compounds on LTA production, 10 mL cultures of S. aureus (strain RN4220) in MH2 broth were incubated in an orbital shaker at 37 °C with either the compounds or DMSO. When the control cultures had reached an OD600nm ∼ 1, the bacteria were pelleted and the OD600nm of the cultures normalized by resuspension with the appropriate amount of MH2 broth. Subsequently, 1 mL from each cultures was mixed with 0.5 mL of 0.1 mm glass beads, and the bacteria were lyzed by vortexing at 4 °C for 45 min. After lysis, glass beads were removed by centrifugation at 200g, and the supernatants were transferred to a new tube. The membrane-associated LTA from each culture were pelleted by an additional centrifugation step of the supernatant at 16,000g for 15 min before resuspension in 30 μL of 2× SDS. The samples were boiled at 80 °C for 20 min, and the solubilized fractions were loaded onto 15% SDS-polyacrylamide gels prior to electrophoresis at 120 V for 1.5 h. The LTA on the gels were electrotransferred onto FL-immobilon PVDF membranes at 25 V for another 1.5 h. After the electrotransfer, the membranes were blocked with 5% skimmed milk for 1 h and incubated with the antimouse LTA antibody (clone G43J, Thermo Fisher Scientific; 1:1000 dilution) overnight at 4 °C. After washing, the membranes were incubated with antimouse IRDye 680RD (1:10,000 dilution) for 1 h, washed, and visualized using the Odyssey CLx Imaging System.
(In western blotting, separated proteins are transferred to a membrane and probed.)

A further data set concerns the target T2, eLtaS (Staphylococcus aureus, UniProt Q2G093).
T2 construct: LtaS is a transmembrane protein with a large extracellular catalytic domain (denoted as eLtaS); His-tag; made in house; host or cells: E. coli (Rosetta; plasmid pProEX-eLtaS from strain ANG571)
Briefly: Differential scanning fluorimetry (DSF) of eLtaS. The format is binding, S. aureus. How it is done: DSF assays were performed on eLtaS using the CFX Connect RT-PCR system (Bio-rad) using the protocol described previously.[43] Solutions containing 5 μM eLtaS protein in DSF buffer (25 mM Trizma-HCl, pH 7.5, 100 mM NaCl, 10% glycerol, 1 mM EDTA, 20× SYPRO Orange) with compounds at the appropriate concentrations were dispensed onto 96-well PCR plates in triplicate. The plates were sealed with Microseal “B” PCR Plate Sealing Film (Bio-rad) prior to the DSF run. The emitted fluorescence at 568 nm was measured from 25 to 65 °C at a step ramp rate of 0.5 °C every 30 s. Prism GraphPad v.5 was used for curve fitting, and the melting temperature Tm for each curves was derived from the Boltzmann equation.
A general note: Differential scanning fluorimetry follows unfolding on heating by fluorescence.

In the next data set the test system is HEK293 cells. Briefly: LDH release cytotoxicity assay. The format is cell-based, human. As to conditions: 200 μM compound, 24 h. How it is done: The human embryonic kidney (HEK293) cells were maintained in Dulbecco’s modified Eagle medium (DMEM) supplemented with 10% fetal bovine serum and 100 units/mL of penicillin–streptomycin. For the cell viability assays, cells were seeded onto 96-well plates at a density of 4 × 10^4 cells/well and grown at 37 °C at 5% CO2. After incubating the cells for 24 h, the culture media were replaced with fresh DMEM supplemented with 200 μM of the compounds 1771, compound 4, compound 8, and compound 9 and incubated further for an additional 24 h. The cytotoxicity of these drugs was measured using the LDH Cytotoxicity Assay Kit according to the manufacturer’s instruction (Thermo Scientific). The absorbance at 490 nm was measured with a CLARIOstar microplate reader (BMG Labtech), and the reference wavelength was set at 630 nm.

T1 sequence (Q2G093 218-646): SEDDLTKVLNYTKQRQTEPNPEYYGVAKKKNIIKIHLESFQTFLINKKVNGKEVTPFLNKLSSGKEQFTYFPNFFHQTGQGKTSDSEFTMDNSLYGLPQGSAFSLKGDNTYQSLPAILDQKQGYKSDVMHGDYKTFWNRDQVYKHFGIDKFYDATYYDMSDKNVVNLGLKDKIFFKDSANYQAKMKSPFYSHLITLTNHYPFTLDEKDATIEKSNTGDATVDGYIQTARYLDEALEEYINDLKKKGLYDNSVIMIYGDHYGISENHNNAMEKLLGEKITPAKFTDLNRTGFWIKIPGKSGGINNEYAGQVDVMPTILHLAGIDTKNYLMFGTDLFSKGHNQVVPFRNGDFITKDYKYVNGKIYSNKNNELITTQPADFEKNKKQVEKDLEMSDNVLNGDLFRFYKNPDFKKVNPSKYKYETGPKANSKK
T2 sequence (Q2G093 218-646): as above

Broadly, the Kd is the equilibrium constant for the complex coming apart. A low value points to higher affinity. `O=C(COC(=O)c1cn(-c2ccccc2)nc1-c1cccs1)Nc1nnc(-c2ccccc2)o1` [Compound 4] came in with a Kd at wild-type eLtaS of 365 ± 6.8 nM. In addition, at wild-type eLtaS (wild-type eLtaS, compared with 1771), the binding enthalpy result is given as “more exothermic than that of 1771”. The LTA production entry is “able to reduce LTA production” in data set [1] and “decrease LTA production in a dose-dependent manner” in data set [1] (listed as compound 4). For the same compound, the “shift of the melting temperature of eLtaS” value on eLtaS (DSF, 5 μM eLtaS, across the range of concentrations tested) is given as “shifted the melting temperature of eLtaS more so than 1771”. Moreover, in the data set on HEK293 cells, the “cytotoxicity (LDH release)” value is reported as “non-cytotoxic”.

`S=C(Nc1ccc(Cl)cc1)Nc1ccc(Sc2nc3ccccc3[nH]2)cc1` [Compound 9] gave a Kd on wild-type eLtaS of 283 nM. Moreover, in data set [1] (Western blot, 100 μM compound), the “electrophoretic mobility of the LTA extracted from treated S. aureus” value was “smearing effect”. In addition, the “direct binding to eLtaS” value at eLtaS (using ITC and DSF, DSF at 100 μM compound) is “binds directly to eLtaS”. The “cytotoxicity (LDH release)” value in the data set on HEK293 cells is on record as “not cytotoxic”.
